Results as given in patent US9309231B2, “Bridged ring compounds as hepatitis C virus (HCV) inhibitors and pharmaceutical applications thereof” (SUNSHINE LAKE PHARMA CO., LTD, priority 2012, dated 2016).

Key:
[1] = system: HCV GT1a replicon cells; assay: HCV replicon assay, GT1a replicon cells; assay type: cell-based; conditions: Hepatitis C virus, 72 hours incubation, luciferase reporter or NEO gene qPCR readout, read-out: EC50 against HCV 1a genotype
Procedure: (§1) An HCV Replicon assay was utilized in the present disclosure, and was prepared, developed and validated as described in Science, 1999, 285 (5424), 110-3 and J. Virol., 2003, 77 (5), 3007-19.
(§2) HCV GT1a, GT1b and GT2a replicon cells were used to test the currently described compound series as well as wild-type cells HCV 1b and resistant cells Y^93H, L31F, P32L and I302V. GT1a and CT1b are HCV Replicon System which is transfected HCV 1a, 1b genotype respectively.
(§3) 1. Testing EC50 of the Compounds by Luciferase Assay
(§4) The GT1b cells and GT1a cells were seeded into 96-well plates (8,000 cells in 125 μl/well) respectively; each compound was diluted to desired concentration using 5-fold serial dilutions protocol, 10 dose in duplicate, and added to wells with POD™ 810 Plate Assembler. The final concentration of DMSO was 0.5%; the plates were incubated in a CO2 incubator for 72 hours; after that, 40 μl of Luciferase assay substrate (Promega Bright-Glo) was added to each well, and detected by a chemiluminescence detection system (Topcount Microplate Scintillation and Luminescence Counter) 5 minutes later; data analysis.
(§5) 2. Testing EC50 of the Compounds by Detecting Antibiotic G418 Resistance Gene NEO Gene
(§6) The GT1b cells and GT1a cells were seeded into 96-well plates (8,000 cells in 125 μl/well) respectively; each compound was diluted to desired concentration using 5-fold serial dilutions protocol, 10 dose in duplicate, and added to wells with POD™ 810 Plate Assembler., the final concentration of DMSO was 0.5%; the cells were incubated in a CO2 incubator for 72 hours; quantitative PCR. • Sample preparation: the supernatant was removed, 100 μl of FCW buffer solution was added to each well, washed carefully and discarded the solution; 50 μl of lysate FCP was added to each well, the cells was lysed as PCR template and diluted with DEPC water. • Quantitative PCR: preparation of reaction mixture according to PCR system; the reaction mixture was dispensed into a 384-well PCR reaction plate (specially for quantitative); and a standard template which was diluted in proportion was distributed into the plate; and the sample template was distributed into the plate; then the 384-well plate was sealed with closure plate membrane; the […] PCR machine was operated by procedures; data analysis.
(§7) 3. Data Processing: The EC50 Values of Compounds were Analyzed by GraphPad Prism Software.

[2] = system: HCV GT1b replicon cells; assay: HCV replicon assay, GT1b replicon cells; assay type: cell-based; conditions: Hepatitis C virus, 72 hours incubation, luciferase reporter or NEO gene qPCR readout, read-out: EC50 against HCV 1b genotype
Procedure: as §1, §2, §3, §4, §5, §6, §7

Row | SMILES | EC50 [1] | EC50 [2]
1 | COC(=O)N[C@H](C(=O)N1CCC[C@H]1c1nc2ccc(-c3ccc(-c4ccc(-c5cnc([C@@H]6C7CCC(C7)N6C(=O)[C@@H](NC(=O)OC)C(C)C)[nH]5)cc4)c4c3C3CCC4C3)cc2[nH]1)C(C)C (stereo partly drawn) [Example 1] | 0.029 nM | 0.008 nM
2 | COC(=O)N[C@H](C(=O)N1CCC[C@H]1c1nc2ccc(-c3ccc(-c4ccc(-c5cnc([C@@H]6CC7CC7N6C(=O)[C@@H](NC(=O)OC)C(C)C)[nH]5)cc4)c4c3C3CCC4C3)cc2[nH]1)C(C)C (stereo partly drawn) [Example 3] | 0.053 nM | 0.013 nM
3 | COC(=O)N[C@H](C(=O)N1CCC[C@H]1c1ncc(-c2ccc(-c3ccc(-c4cnc([C@@H]5CCCN5C(=O)[C@@H](NC(=O)OC)C(C)C)[nH]4)c4c3C3CCC4C3)c(F)c2)[nH]1)C(C)C (stereo partly drawn) [Example 4] | 0.497 nM | 0.007 nM
4 | COC(=O)N[C@H](C(=O)N1CCC[C@H]1c1ncc(-c2ccc(-c3ccc(-c4ccc(-c5cnc([C@@H]6CCCN6C(=O)[C@@H](NC(=O)OC)C(C)C)[nH]5)cc4)c4c3C3CCC4C3)cc2)[nH]1)C(C)C [Example 5] | 1.05 nM | 0.098 nM
5 | COC(=O)N[C@H](C(=O)N1CCC[C@H]1c1nc2cc(-c3ccc(-c4ccc5[nH]c([C@@H]6CCCN6C(=O)[C@@H](NC(=O)OC)C(C)C)nc5c4)c4c3C3CCC4C3)ccc2[nH]1)C(C)C [Example 6] | 0.047 nM | 0.006 nM
6 | COC(=O)N[C@@H](C)C(=O)N1CCC[C@H]1c1ncc(-c2ccc(-c3ccc(-c4ccc5[nH]c([C@@H]6CCCN6C(=O)[C@H](C)NC(=O)OC)nc5c4)c4c3C3CCC4C3)cc2)[nH]1 (stereo partly drawn) [Example 7] | 0.094 nM | 0.076 nM
7 | COC(=O)N[C@H](C(=O)N1CCC[C@H]1c1nc2cc(-c3ccc(-c4ccc(-c5cnc([C@H]6CCCN6C(=O)[C@@H](NC(=O)OC)C(C)C)[nH]5)cc4)c4c3C3CCC4C3)ccc2[nH]1)c1ccccc1 (stereo partly drawn) [Example 8] | 0.033 nM | 0.019 nM
8 | CCC(C)[C@H](NC(=O)OC)C(=O)N1CCC[C@H]1c1nc2cc(-c3ccc(-c4ccc(-c5cnc([C@@H]6CCCN6C(=O)[C@@H](NC(=O)OC)C(C)C)[nH]5)cc4)c4c3C3CCC4C3)ccc2[nH]1 (stereo partly drawn) [Example 9] | 0.104 nM | 0.009 nM
9 | COC(=O)N[C@H](C(=O)N1CCC[C@H]1c1ncc(-c2ccc(-c3ccc(-c4cnc([C@@H]5CCCN5C(=O)[C@@H](NC(=O)OC)C5CCCCC5)[nH]4)c4c3C3CCC4C3)cc2)[nH]1)C1CCCCC1 (stereo partly drawn) [Example 10] | 0.374 nM | 0.013 nM
10 | COC(=O)N[C@H](C(=O)N1CCC[C@H]1c1ncc(-c2ccc(-c3nnc(-c4ccc5[nH]c([C@@H]6CCCN6C(=O)[C@@H](NC(=O)OC)C(C)C)nc5c4)c4c3C3CCC4CC3)cc2)[nH]1)C(C)C [Example 11] | 0.049 nM | 0.023 nM
11 | COC(=O)N[C@H](C(=O)N1CCC[C@H]1c1ncc(-c2ccc(-c3nnc(-c4ccc5[nH]c([C@@H]6CCCN6C(=O)[C@@H](NC(=O)OC)C(C)C)nc5c4)c4c3C3CCC4C3)cc2)[nH]1)C(C)C (stereo partly drawn) [Example 12] | 0.658 nM | 0.373 nM
12 | COC(=O)N[C@H](C(=O)N1C[C@@H](F)CC1c1ncc(-c2ccc(-c3ccc(-c4cnc(C5C[C@H](F)CN5C(=O)[C@@H](NC(=O)OC)C(C)C)[nH]4)c4c3C3CCC4C3)cc2)[nH]1)C(C)C (stereo partly drawn) [Example 13] | 0.53 nM | 0.034 nM
13 | COC(=O)N[C@H](C(=O)N1CC(F)(F)C[C@H]1c1ncc(-c2ccc(-c3ccc(-c4cnc([C@@H]5CC(F)(F)CN5C(=O)[C@@H](NC(=O)OC)C(C)C)[nH]4)c4c3C3CCC4C3)cc2)[nH]1)C(C)C (stereo partly drawn) [Example 14] | 0.487 nM | 0.006 nM
14 | COC(=O)N[C@H](C(=O)N1CCC[C@H]1C(=O)Nc1cccc(-c2ccc(-c3ccc(-c4cnc([C@@H]5CCCN5C(=O)[C@@H](NC(=O)OC)C(C)C)[nH]4)cc3)c3c2C2CCC3C2)c1)C(C)C (stereo partly drawn) [Example 16] | 3.5 nM | 0.009 nM
15 | COC(=O)N[C@H](C(=O)N1CCC[C@H]1c1ncc(-c2ccc(-c3ccc(-c4ccc5nc([C@@H]6CCCN6C(=O)[C@@H](NC(=O)OC)C(C)C)[nH]c5c4)c4c3C3CCC4C3)cc2)[nH]1)C(C)C (stereo partly drawn) [Example 17] | 0.767 nM | 0.007 nM
16 | COC(=O)N[C@H](C(=O)N1CCC[C@H]1c1ncc(-c2ccc(-c3ccc(-c4cnc([C@@H]5CCCN5C(=O)[C@@H](NC(=O)OC)C(C)C)[nH]4)c4c3C3CCC4C3)cc2)[nH]1)C(C)C (stereo partly drawn) [Example 18] | 0.138 nM | 0.014 nM
17 | COC(=O)N[C@H](C(=O)N1CCCC1c1ncc(C#Cc2ccc(C#Cc3cnc([C@@H]4CCCN4C(=O)[C@@H](NC(=O)OC)C(C)C)[nH]3)c3c2C2CCC3C2)[nH]1)C(C)C (stereo partly drawn) [Example 19] | 0.087 nM | 0.026 nM
18 | COC(=O)N[C@H](C(=O)N1C[C@@H](C)C[C@H]1c1ncc(-c2ccc(-c3ccc(-c4cnc([C@@H]5C[C@H](C)CN5C(=O)[C@@H](NC(=O)OC)C(C)C)[nH]4)c4c3C3CCC4C3)cc2)[nH]1)C(C)C (stereo partly drawn) [Example 20] | < 0.001 nM | 0.045 nM
19 | COC(=O)N[C@H](C(=O)N1CCC[C@H]1c1ncc(-c2ccc(-c3ccc(-c4ccc5nc([C@@H]6CCCN6C(=O)[C@@H](NC(=O)OC)C(C)C)[nH]c5c4)c4c3C3CCC4CC3)cc2)[nH]1)C(C)C [Example 21] | 0.093 nM | 0.013 nM
20 | COC(=O)N[C@H](C(=O)N1CCC[C@H]1c1ncc(-c2ccc(-c3ccc(-c4cnc([C@@H]5CCCN5C(=O)[C@@H](NC(=O)OC)C(C)C)[nH]4)c4c3C3CCC4CC3)cc2)[nH]1)C(C)C [Example 22] | 11.4 nM | 0.004 nM
21 | COC(=O)N[C@H](C(=O)N1CCC[C@H]1c1ncc(C#Cc2ccc(C#Cc3cnc([C@@H]4CCCN4C(=O)[C@@H](NC(=O)OC)C(C)C)[nH]3)c3c2C2CCC3N2C)[nH]1)C(C)C [Example 24] | 0.453 nM | 0.096 nM
22 | COC(=O)N[C@H](C(=O)N1CCC[C@H]1c1nc2ccc(-c3ccc(-c4ccc5nc([C@@H]6CCCN6C(=O)[C@@H](NC(=O)OC)C(C)C)[nH]c5c4)c4c3C3CCC4N3C)cc2[nH]1)C(C)C [Example 25] | 0.083 nM | 0.032 nM
23 | COC(=O)N[C@H](C(=O)N1CCC[C@H]1c1ncc(-c2ccc(-c3ccc(-c4cnc([C@@H]5CCCN5C(=O)[C@@H](NC(=O)OC)C(C)C)[nH]4)c4c3C3CCC4N3C)cc2)[nH]1)C(C)C (stereo partly drawn) [Example 26] | 0.653 nM | 0.077 nM
24 | CC[C@H](C)[C@H](NC(=O)OC)C(=O)N1CCC[C@H]1c1nc2ccc(-c3ccc(-c4ccc(-c5cnc([C@@H]6CCCN6C(=O)[C@@H](NC(=O)OC)C(C)C)[nH]5)cc4)c4c3C3CCC4N3C)cc2[nH]1 (stereo partly drawn) [Example 28] | 0.063 nM | 0.015 nM
25 | COC(=O)N[C@H](C(=O)N1CC(F)(F)CC1c1ncc(-c2ccc(-c3ccc(-c4cnc([C@@H]5CC(F)(F)CN5C(=O)[C@@H](NC(=O)OC)C(C)C)[nH]4)cc3)c3c2C2CCC3N2C)[nH]1)C(C)C (stereo partly drawn) [Example 31] | 0.077 nM | 0.038 nM
26 | COC(=O)N[C@H](C(=O)N1C[C@H](C)C[C@H]1c1ncc(-c2ccc(-c3ccc(-c4cnc([C@@H]5C[C@H](C)CN5C(=O)[C@@H](NC(=O)OC)C(C)C)[nH]4)c4c3C3CCC4N3C)cc2)[nH]1)C(C)C (stereo partly drawn) [Example 33] | 0.038 nM | 0.009 nM
27 | COC(=O)N[C@H](C(=O)N1CCC[C@H]1c1ncc(-c2ccc(-c3ccc(-c4ccc5nc([C@@H]6CCCN6C(=O)[C@@H](NC(=O)OC)C(C)C)[nH]c5c4)c4c3C3CCC4N3C)nc2)[nH]1)C(C)C (stereo partly drawn) [Example 34] | 0.054 nM | 0.006 nM
